In US6147097A, “Imidazole derivatives as anti-HIV agents” (Shionogi & Co., Ltd., priority 1994, dated 2000):
pIC50: −log10 of the molar value. ≈ marks a conversion by molar mass, not a printed value. Where two headings read alike, the source gives them in different places.

Columns and labels:
HIV (HTLV-IIIB strain) = assay: microbe, parasite or virus in culture; type: cell-based; conditions: Human immunodeficiency virus 1, IIIB, MT4, 120 h
How it was run: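 MT-4 cells (3.5×10^4 per well) were infected with HIV at 60 pfu per well in the presence of diluted compound and incubated for 5 days at 37° C. Surviving cells were then measured by MTT reduction, with the formazan dissolved in acidified isopropanol containing Triton X-100.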

[1] = cytotoxicity in MT-4 cells (MTT, culture medium in place of HIV); type: cell-based; conditions: human
How it was run: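 MT-4 cells (3.5×10^4 per well) exposed to diluted compound with culture medium added instead of HIV, 5 days at 37° C in CO2. MTT added for 1 h, formazan dissolved in Triton X-100/acidified isopropanol. OD read at 560 nm (690 nm reference) and compared with control.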

[2] = biological target: T1, purified recombinant HIV-1 reverse transcriptase (Human immunodeficiency virus type 1 group M subtype B, UniProt P04585); assay: reverse transcriptase inhibition, poly(rA)/(dT) template primer, [3H]dTTP uptake; type: biochemical
T1 construct: purified recombinant HIV-1 reverse transcriptase; made in house; host or cells: Escherichia coli
How it was run: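 Inhibition reported as percent reduction of [3H]dTTP incorporation relative to solvent control, after 1 h at 37 °C at pH 8.3. Recombinant RT from E. coli, poly(rA) template with oligo(dT) primer, 4 μM unlabeled dTTP as substrate; product collected on DEAE filter mats.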

[3] = MT-4 cells, 60 pfu HIV per well, 37° C., 5 days, MTT, Tables 1 and 2, read-out: EC50
[4] = MT-4 cells, no virus, 37° C., 5 days, MTT, Table 3, read-out: CC50
[5] = read-out: RT IC50, pH 8.3, 37° C., 1 hour, Tables 5 and 6

| SMILES | EC50 (HIV (HTLV-IIIB strain); [3]) [µg/mL] | CC50 at 120 h ([1]; mt-4 cells) [µg/mL] | pIC50 [2] | CC50 at 120 h [1, 4] [µg/mL] | pIC50 [2, 5] | EC50 (HIV (HTLV-IIIB strain)) [µg/mL] |
| --- | --- | --- | --- | --- | --- | --- |
| CC(C)c1nc(CCO)n(CCO)c1Sc1cc(Cl)cc(Cl)c1 [Compound 131c, 2-(5-(3,5-dichlorophenylthio)-2-(2-hydroxyethyl)-4-isopropyl-1H-imidazol-1-yl)ethanol] | < 0.008 | 6.3 to 12.5 (≈ 16.8 to 33.3 µM) | 5.59 | – | – | – |
| COC(=O)C(C)c1nc(C)n(C)c1Sc1cc(C)cc(C)c1 (stereo not drawn) [Compound I-96, methyl 2-[1,2-dimethyl-5-(3,5-dimethylphenylthio)-1H-imidazol-4-yl]propionate] | 0.03 (≈ 0.0942 µM) | – | 4.84 | 10 to 100 (≈ 31.4 to 314 µM) | – | – |
| CC(C)c1nc(CCOC(N)=O)n(Cc2ccncc2)c1Sc1cc(Cl)cc(Cl)c1 [Compound I-138, 2-(2-carbamoyloxyethyl)-5-(3,5-dichlorophenylthio)-4-isopropyl-1-(pyridin-4-yl)methyl-1H-imidazole] | 0.008 (≈ 0.0172 µM) | 12.5 (≈ 26.9 µM) | 5.49 | – | – | – |
| Cc1cc(C)cc(Sc2c(C(C)C)nc(C)n2C)c1 [Compound I-2, 5-(3,5-dimethylphenylthio)-1,2-dimethyl-4-isopropyl-1H-imidazole] | 0.008 (≈ 0.0292 µM) | – | 5.12 | 25 (≈ 91.1 µM) | – | – |
| CC(C)c1nc(CC(=O)O)n(C)c1Sc1cc(Cl)cc(Cl)c1 [Compound I-80, [5-(3,5-dichlorophenylthio)-4-isopropyl-1-nethyl-1H-imidazol-2-yl]acetic acid] | 0.5 to 1 (≈ 1.39 to 2.78 µM) | – | 5.51 | 10 to 100 (≈ 27.8 to 278 µM) | – | – |
| CC(C)c1nc(CCN)n(C)c1Sc1cc(Cl)cc(Cl)c1 [Compound I-82, 2-(2-aminoethyl)-5-(3,5-dichlorophenylthio)-4-isopropyl-1-methyl-1H-imidazole] | 0.25 (≈ 0.726 µM) | 1.5 to 3.2 (≈ 4.36 to 9.29 µM) | – | – | 5.89 | – |
| CC(C)c1nc(CCO)n(Cc2ccc([N+](=O)[O-])cc2)c1Sc1cc(Cl)cc(Cl)c1 [Compound 126a, 5-(3,5-dichlorophenylthio)-2-(2-hydroxyethyl)-4-isopropyl-1-p-nitrobenzyl-1H-imidazole] | 0.008 (≈ 0.0172 µM) | 6.3 (≈ 13.5 µM) | 5.59 | – | – | – |
| CCn1c(COC(N)=O)nc(C(C)C)c1Sc1cc(F)cc(F)c1 [Compound I-58, 2-carbamoyloxymethyl-5-(3,5-difluorophenylthio)-1-ethyl-4-isopropyl-1H-imidazole] | – | – | 6.37 | 10 to 100 (≈ 28.1 to 281 µM) | – | 0.002 (≈ 0.00563 µM) |
| CCCn1c(COC(N)=O)nc(C(C)C)c1Sc1cc(Cl)cc(Cl)c1 [Compound I-51, 2-carbamoyloxymethyl-5-(3,5-dichlorophenylthio)-4-isopropyl-1-n-propyl-1H-imidazole] | 0.003 to 0.005 (≈ 0.00746 to 0.0124 µM) | – | 6.02 | 6.3 to 12.5 (≈ 15.7 to 31.1 µM) | – | – |
| CC(C)c1c(Sc2cccc(Cl)c2)nc(COC(N)=O)n1C [Compound I-59, 2-carbamoyloxymethyl-4-(3-chlorophenylthio)-5-isopropyl-1-methylimidazole] | – | – | < 3.53 | 12.5 to 25 (≈ 36.8 to 73.6 µM) | – | 12.5 (≈ 36.8 µM) |
| CC(C)c1c(Sc2cc(Cl)cc(Cl)c2)nc(CO)n1C [Compound I-39, [4-(3,5-dichlorophenylthio)-5-isopropyl-1-methyl-1H-imidazol-2-yl]methanol] | 1 to 10 (≈ 3.02 to 30.2 µM) | – | 3.70 | 10 to 100 (≈ 30.2 to 302 µM) | – | – |
| CC(C)c1nc(CCOCc2ccccc2)n(C)c1Sc1cc(Cl)cc(Cl)c1 [Compound I-136, 2-(2-benzyloxyethyl)-5-(3,5-dichlorophenylthio)-4-isopropyl-1-methyl-1H-imidazole] | 0.008 to 0.016 (≈ 0.0184 to 0.0367 µM) | 12.5 (≈ 28.7 µM) | – | – | 5.34 | – |
| CC(C)c1nc(CO)n(C)c1Sc1cc(Cl)cc(Cl)c1 [Compound I-8, [5-(3,5-dichlorophenylthio)-4-isopropyl-1-methyl-1H-imidazol-2-yl]methanol] | 0.016 (≈ 0.0483 µM) | – | 5.52 | 12.5 (≈ 37.7 µM) | – | – |
| CC(C)c1nc(CO)n(CC(F)(F)F)c1Sc1cc(Cl)cc(Cl)c1 [Compound I-33, 2-[5-(3,5-dichlorophenylthio)-4-isopropyl-1-(1,1,1-trifluoroethyl)-1H-imidazol-2-yl]methanol] | 0.016 (≈ 0.0401 µM) | – | 5.01 | 10 to 100 (≈ 25 to 250 µM) | – | – |
| CC(C)c1nc(CO)n(Cc2ccc([N+](=O)[O-])cc2)c1Sc1cc(Cl)cc(Cl)c1 [Compound 103a, 5-(3,5-dichlorophenylthio)-2-hydroxymethyl-4-isopropyl-1-(p-nitrobenzyl)-1H-imidazole] | < 0.008 | 6.3 to 12.5 (≈ 13.9 to 27.6 µM) | 4.54 | – | – | – |
| CC(C)c1nc(CN)n(Cc2cccnc2)c1Sc1cc(Cl)cc(Cl)c1 [Compound I-94, 2-aminomethyl-5-(3,5-dichlorophenylthio)-4-isopropyl-1-(pyridin-3-yl)methyl-1H-imidazole] | 0.03 (≈ 0.0736 µM) | – | 5.33 | 12.5 to 25 (≈ 30.7 to 61.4 µM) | – | – |

| SMILES | EC50 (HIV (HTLV-IIIB strain); [3]) [µg/mL] | CC50 at 120 h ([1]; mt-4 cells) [µg/mL] | pIC50 [2] | CC50 at 120 h [1, 4] [µg/mL] | pIC50 [2, 5] | EC50 (HIV (HTLV-IIIB strain)) [µg/mL] |
| --- | --- | --- | --- | --- | --- | --- |
| CC(C)c1nc(CO)n(CCCCCc2ccccc2)c1Sc1cc(Cl)cc(Cl)c1 [Compound I-124, 5-(3,5-dichlorophenylthio)-2-hydroxymethyl-4-isopropyl-1-(5-phenylpentyl)-1H-imidazole] | 0.25 (≈ 0.539 µM) | 12.5 (≈ 27 µM) | < 3.67 | – | – | – |
| CC(C)c1nc(CO)n(CCCCCCc2ccccc2)c1Sc1cc(Cl)cc(Cl)c1 [Compound I-125, 5-(3,5-dichlorophenylthio)-2-hydroxylmethyl-4-isopropyl-1-(6-phenlylhexyl)-1H-imidazole] | 0.5 to 1 (≈ 1.05 to 2.09 µM) | 12.5 (≈ 26.2 µM) | < 3.68 | – | – | – |
| CC(C)c1nc(COC(N)=O)n(CCCc2ccccn2)c1Sc1cc(Cl)cc(Cl)c1 [Compound I-130, 2-carbamoyloxymethyl-5-(3,5-dichlorophenylthio)-4-isopropyl-1-(3-(2-pyridyl)propyl)-1H-imidazole] | < 0.008 | 6.3 to 12.5 (≈ 13.1 to 26.1 µM) | 5.40 | – | – | – |
| CC(C)c1nc(CO)n(CC2CC2)c1Sc1cc(Cl)cc(Cl)c1 [Compound I-30, [1-cyclopropylmethyl-5-(3,5-dichlorophenylthio)-4-isopropyl-1H-imidazol-2-yl]methanol] | 0.005 to 0.01 (≈ 0.0135 to 0.0269 µM) | – | 5.61 | 10 to 100 (≈ 26.9 to 269 µM) | – | – |
| CC(C)c1nc(CO)n(CCCc2ccccn2)c1Sc1cc(Cl)cc(Cl)c1 [Compound 112b, 5-(3,5-dichlorophenylthio)-4-isopropyl-2-hydroxymethyl-1-(3-(2-pyridyl)propyl)-1H-imidazole] | < 0.008 | 6.3 to 12.5 (≈ 14.4 to 28.6 µM) | 5.22 | – | – | – |
| CCn1c(CN)nc(C(C)C)c1Sc1ccccc1 [Compound I-75, 2-aminomethyl-1-ethyl-4-isopropyl-5-phenylthio-1H-imidazole] | 0.01 (≈ 0.0363 µM) | 16.5 (≈ 59.9 µM) | 6.10 | – | – | – |
| CC(C)c1nc(CCO)n(Cc2cccc([N+](=O)[O-])c2)c1Sc1cc(Cl)cc(Cl)c1 [Compound 126b, 5-(3,5-Dichlorophenylthio)-2-(2-hydroxyethyl)-4-isopropyl-1-m-nitrobenzyl-1H-imidazole] | 0.008 to 0.016 (≈ 0.0172 to 0.0343 µM) | 3.1 to 6.3 (≈ 6.65 to 13.5 µM) | 5.07 | – | – | – |
| CC(C)c1nc(CCOCc2ccccc2)n(Cc2ccncc2)c1Sc1cc(Cl)cc(Cl)c1 [Compound 122b, 4-[2-(2-benzyloxyethyl)-5-(3,5-dichlorophenylthio)-4-isopropyl-1H-imidazol-1-ylmethy]pyridine] | 0.5 to 1 (≈ 0.976 to 1.95 µM) | 6.3 (≈ 12.3 µM) | 4.15 | – | – | – |
| CCn1c(CO)nc(C(C)C)c1Sc1cccc(Cl)c1 [Compound I-28, [1-ethyl-5-(3-chlorophenylthio)-4-isopropyl-1H-imidazol-2-yl]methanol] | 0.002 to 0.004 (≈ 0.00643 to 0.0129 µM) | – | 6.19 | 12.5 (≈ 40.2 µM) | – | – |
| CNCc1nc(C(C)C)c(Sc2cc(Cl)cc(Cl)c2)n1C [Compound I-85, 5-(3,5-dichlorophenylthio)-4-isopropyl-1-methyl-2-methylaminomethyl-1H-imidazole] | 0.13 (≈ 0.378 µM) | – | 5.12 | 1 to 10 (≈ 2.9 to 29 µM) | – | – |
| CNC(=S)OCc1nc(C(C)C)c(Sc2cc(Cl)cc(Cl)c2)n1C [Compound I-44, 5-(3,5-dichlorophenylthio)-4-isopropyl-1-methyl-2-(N-methylthiocarbamoyl)oxymethyl-1H-imidazole] | 1 (≈ 2.47 µM) | – | 3.97 | 1 to 10 (≈ 2.47 to 24.7 µM) | – | – |
| COC(=O)NCc1nc(C(C)C)c(Sc2cc(Cl)cc(Cl)c2)n1C [Compound I-91, 5-(3,5-dichlorophenylthio)-4-isopropyl-1-methyl-2-methoxycarbonylaminomethyl-1H-imidazole] | 0.06 (≈ 0.155 µM) | – | 6.06 | 6.3 to 12.5 (≈ 16.2 to 32.2 µM) | – | – |
| CC(C)c1nc(CC#N)n(C)c1Sc1cc(Cl)cc(Cl)c1 [Compound I-80a, [5-(3,5-dichlorophenylthio)-4-isopropyl-1-methyl-1H-imidazol-2-yl]acetonitrile] | 0.002 to 0.004 (≈ 0.00588 to 0.0118 µM) | – | 6.49 | 100 (≈ 294 µM) | – | – |
| CC(C)c1nc(CO)n(Cc2ccccc2N)c1Sc1cc(Cl)cc(Cl)c1 [Compound I-119, 1-(o-aminobenzyl)-5-(3,5-dichlorophenylthio)-2-hydroxymethyl-4-isopropyl-1H-imidazole] | 0.13 to 0.25 (≈ 0.308 to 0.592 µM) | 3.1 (≈ 7.34 µM) | 5.11 | – | – | – |
| CCn1c(COC(N)=O)nc(C(C)C)c1Sc1cc(Cl)cc(Cl)c1 [Compound I-52, 2-carbamoyloxymethyl-5-(3,5-dichlorophenylthio)-1-ethyl-4-isopropyl-1H-imidazole] | – | – | 6.33 | 10 (≈ 25.8 µM) | – | 0.003 (≈ 0.00773 µM) |
